Experimental findings from ChEMBL document CHEMBL1146799, “Molecular modeling on DNA cleavage activity of seryl-histidine and related dipeptide” (Bioorg Med Chem Lett, 2004) are described below.

Molecules are shown by their SMILES. Residues, ends and D or L forms follow the SMILES beside them.

Assay [1] concerns Nucleic Acid. In words: DNA cleaving activity was determined; +++++ indicates 100% of Ser-His cleavage activity. The assay is classed as functional.
The subject of assay [2] is Nucleic Acid. The assay is described as follows: DNA cleaving activity was determined; +/- indicates marginally detectable cleavage activity. It counts as functional.

As to `N[C@@H](CO)C(=O)N[C@@H](Cc1c[nH]cn1)C(=O)O` (H-Ser-His-OH), the Activity result in the assay with Nucleic Acid [1] is “++++”.

As to `C[C@@H](O)[C@H](N)C(=O)N[C@@H](Cc1c[nH]cn1)C(=O)O` (H-Thr-His-OH), the Activity entry in the assay on Nucleic Acid [2] is on record as “+/-”.
